The values below come from patent publication US20260315446A1, “ANTIFUNGAL COMPOUNDS AND USES THEREOF” (priority 2023, published 2026).

Each structure is given as a SMILES string.

Data set [1] relates to IL-2 expression in primary mouse CD4+ T cells (mammalian calcineurin). The conditions noted are these: previous studies; cited from earlier work.
For data set [2] the following is noted: in vivo; cited from earlier work.
For data set [3], the system named is C. neoformans H99. The experiment in a line: Intranasal model of pulmonary cryptococcosis, lung fungal burden (Example 1). In kind it is in vivo, Cryptococcus neoformans in A/J mice. The conditions noted are these: day 14; JH-FK-05 60 mg/kg, fluconazole 12 mg/kg, i.p. daily.
Protocol: First, in the intranasal model, animals were anesthetized and infected with 10^5 cells of wild-type H99 C. neoformans via instillation in the animal's nares. These animals were monitored for 14 days and then sacrificed. This model tests the efficacy of JH-FK-05 to treat a pulmonary infection, which is the most common manifestation of early-stage cryptococcosis in patients. […] In both models, animals were treated once daily via i.p. injection beginning 3 h after infection with either vehicle, 60 mg/kg JH-FK-05, 12 mg/kg fluconazole, or a combination of the two monotherapies.
Wild-type H99 C. neoformans cells were grown overnight at 30° C. in a roller drum in yeast extract-peptone-dextrose (YPD) medium. […] H99 cells were counted with a hemacytometer and diluted to 2×10^6 cells/mL in PBS for the pulmonary model and 2×10^5 cells/mL in PBS for the disseminated model.
Female A/J mice (3 to 4 weeks old; Jackson Laboratory) were anesthetized utilizing an isoflurane chamber. […] After 14 days, animals were either sacrificed for fungal burden analysis or monitored for health and survival until reaching a humane endpoint.
Mice were euthanized by CO2 inhalation at the predetermined experimental endpoint. […] A 100-μL aliquot of each dilution was plated on antibiotic plates (YPD, 50 μg/mL ampicillin, and 30 g/mL chloramphenicol), incubated for 48 to 72 h at 30° C., and assessed for CFU. […]
Data set [4] relates to C. neoformans H99. Briefly: Survival in intranasal cryptococcosis model (Example 1). In kind it is in vivo, Cryptococcus neoformans in A/J mice. Conditions: 14 days treatment; JH-FK-05 60 mg/kg, fluconazole 12 mg/kg, i.p. daily. The method, then: To verify if this reduction seen in the fungal burdens of JH-FK-05 and combination-treated animals could translate into a meaningful therapeutic effect, the survival of animals infected via the intranasal route was assessed (FIG. 8A). As in the fungal burden model, these animals received daily treatment for only 14 days. Following the termination of treatment, animals were monitored for signs of decline, lethargy, and ultimately, moribundity. Untreated animals in this model typically survive for about 3 weeks, and similar results were observed here (vehicle treatment median survival, 22 days). Corroborating the results of the fungal burden study, a significant extension of survival for both JH-FK-05 (median survival, 26 days) and fluconazole (median survival, 25 days) was observed.
Female A/J mice (3 to 4 weeks old; Jackson Laboratory) were anesthetized utilizing an isoflurane chamber. While anesthetized, […] of 2×10^6 cells/mL suspension was dripped onto the nares of mice, allowing them to inhale the full inoculum. Treatment began 3 h following infection with i.p. dosing of vehicle, 60 mg/kg JH-FK-05, 12 mg/kg fluconazole, or combination. […] After 14 days, animals were either sacrificed for fungal burden analysis or monitored for health and survival until reaching a humane endpoint. […] Statistical significance was determined using log-rank (Mantel-Cox) tests.

In the next data set the test system is C. neoformans strain H99. The experiment in a line: Murine cryptococcal infection, spleen fungal burden (Example 3). In kind it is in vivo, Cryptococcus neoformans in A/J mice. The conditions noted are these: 14 days; fluconazole 6 mg/kg, JH-FK-08 40 mg/kg, i.p. twice per day. On the procedure:
In vivo antifungal activity and therapeutic benefit were assayed by investigating the impact of the FK520 analog on organ fungal burden during cryptococcosis. Specifically, the in vivo efficacy of JH-FK-08 on fungal burden was assessed using A/J female mice. Immunodeficient A/J mice were selected in part due to their defect in complement component five and their susceptibility to cryptococcal infection. Treatment groups included vehicle of 10% Kolliphor: ethanol (1:1) in phosphate-buffered saline (PBS), 6 mg/kg fluconazole, 40 mg/kg JH-FK-08, or the fluconazole and JH-FK-08 combination, all given via intraperitoneal (i.p.) injection twice per day beginning at 4 hours post infection. […] Mice were intranasally infected with C. neoformans strain H99, and fungal burden in the lung, spleen, and brain was assessed after 14 days of treatment.
C. neoformans inoculum was prepared by growing a 5-mL overnight YPD culture spinning in a tissue culture roller drum at 30° C. Cells were pelleted by centrifugation and washed in sterile PBS three times. Cell density was determined by hemocytometer, and cells were diluted to 2×10^6 cells/mL. Mice (10 to 20 g) were infected with 10^5 cells of C. neoformans H99. […] Following inhalation of the inoculum, animals were monitored for post anesthesia recovery. […] Fungal burden was assessed 24 h after the final dose. […]

Regarding `C=CCC1C=C(C)CC(C)CC(OC)C2OC(O)(C(=O)C(=O)N3CCCCC3C(=O)OC(C(C)=CC3CCC(O)C(OC)C3)C(C)C(O)CC1=O)C(C)CC2OC` (centres unmarked) [FK506, reference compound], the “effect on T cells” value in data set [1] is “cytotoxic and reduce the proliferation of T cells”. For the same compound, in data set [2], the “blood brain barrier crossing” value was “known to cross the blood brain barrier”.
Regarding `CC[C@@H]1/C=C(\C)C[C@H](C)C[C@H](OC)[C@H]2O[C@@](O)(C(=O)C(=O)N3CCCC[C@H]3C(=O)O[C@H](/C(C)=C/[C@@H]3CC[C@@H](O)[C@H](OC)C3)[C@H](C)[C@@H](O)C/C1=N/NC(C)=O)[C@H](C)C[C@@H]2OC` [JH-FK-05], the “reduction of lung fungal burden” value with C. neoformans H99 [3] is roughly 10 fold. The median survival in the data set on C. neoformans H99 [4] is recorded as 26 days.
Consider `CC[C@@H]1/C=C(\C)C[C@H](C)C[C@H](OC)[C@H]2O[C@@](O)(C(=O)C(=O)N3CCCC[C@H]3C(=O)O[C@H](/C(C)=C/C3CC[C@@H](O)[C@H](OC)C3)[C@H](C)[C@@H](O)C/C1=N/NC(=O)OC)[C@H](C)C[C@@H]2OC` (some centres unmarked) [JH-FK-08], for which the “spleen fungal burden” value in the data set on C. neoformans strain H99 is given as “no detectable fungal burden”.
